“Also recorded” adds a separate entry of the source. One block for each compound: values may come before it.
How the values were obtained:
[1] = target: T1, ATM (Homo sapiens, UniProt Q13315); assay: IR-induced de-phosphorylation of pY37-H2B in H1975 cells (immunoblot); assay type: cell-based; conditions: H1975 irradiated (15GY)
T1 construct: endogenous in cells; host or cells: H1975
From the text: Whole cell extracts were immunoblotted with indicated antibodies.
To determine whether pY37-H2B de-phosphorylation is regulated by ATM recruited to the sites of DSBs by the MRN complex, Applicants treated the cells with the ATM inhibitor Ku55393. […] EYA in turn interacted with H2AX executing a damage-signal-dependent dephosphorylation of Tyr142, that is constitutively phosphorylated in the absence of DNA damage (Cook, P. J. et al. (2009) Nature, 458(7238):591-596).

[2] = system: Xenopus laevis embryos
From the text: Table 4 provides the phenotype distribution for surviving embryos (raw data are identical to those in Table 3).

[3] = system: pTyr-AR recruitment to PSA, NKX3,1 and TMPRSS2 promoters; assay: ChIP-qPCR for pTyr267-AR binding to PSA, NKX3.1 and TMPRSS2 AREs in LAPC4 cells; assay type: cell-based; conditions: EGF (10 ng/ml, 1 hr), AIM-100 0.8 μM, 16 hr
Description: FIG. 8A-8C are bar graphs showing Ack1 inhibition by AIM-100 suppressed recruitment of pTyr-AR to PSA (FIG. 8A), NKX3.1 (FIG. 8B) and TMPRSS2 (FIG. 8C) promoters. LAPC4 cells were treated with DHT (5 nM, 16 hr) or EGF (10 ng/ml, 1 hr), and AIM-100 (0.8 μM, 16 hr) and ChIP analysis for pTyr267-AR binding to the PSA, NKX3.1 and TMPRSS2 AREs was performed followed by qPCR. *p=0.001; **p=0.006; ***p=0.014.
LAPC4 cells were treated with DHT (5 nM, 16 hr), EGF (10 ng/ml, 1 hr), or EGF and AIM-100 (0.8 μM, 16 hr) and ChIP analysis for pTyr267-AR binding to the PSA, NKX3.1 and TMPRSS2 AREs was performed followed by qPCR. Ack1 inhibition by AIM-100 suppressed recruitment of pTyr-AR to PSA, NKX3,1 and TMPRSS2 promoters (FIGS. 8A-8C).

[4] = target: T2, Ack1 (Homo sapiens, UniProt Q07912, E346K); assay type: biochemical; conditions: 5 uM for 1 hour at 30° C.
T2 construct: HA; made in house

[5] = system: LNCaP-caAck expressing cells; assay: LNCaP-caAck prostate xenograft tumor growth in castrated nude male mice; assay type: in vivo; conditions: 4 mg/kg of body weight per injection, five times
Description: FIG. 9 is a line graph showing prostate xenograft tumor volume (mm^3) in castrated nude male mice treated with AIM-100 Ack1 inhibitor or DMSO control. Castrated nude male mice were injected with LNCaP-caAck expressing cells. Mice were injected with AIM-100 (4 mg/kg of body weight per injection) on five times (n=8) and tumor volumes were measured.
Castrated nude male mice were injected with LNCaP-caAck expressing cells. Mice were injected with AIM-100 (4 mg/kg of body weight per injection) on five times (n=8) and tumor volumes were measured.

[6] = system: H3K9 and K27 methylation; assay: Immunoblot of H3K9/H3K27 methylation in LAPC4 cells; assay type: cell-based
Description: FIG. 25 is an immunoblot of lysates from LAPC4 cells that were untreated (column 1), treated with EGF (column 2), or treated with EGF and AIM-100 (column 3) that were immunoblotted with H3K9 dimethyl (top panel), H3K27 (middle panel), or H3 (bottom panel) antibodies.
The prostate cancer derived cells, LAPC4 were treated with AIM-100 (7 uM, 16 hours). The equal amount of cell lysates were subjected to immunoblotting with H3K9me3 and histone H3 antibodies. […] The histone H3 antibodies were used as a control to indicate equal amount of protein.
(§1) LAPC4 cells were treated with EGF or EGF and AIM-100 and the lysates were immunoblotted with H3K9 dimethyl and H3K27 dimethyl antibodies. Thus, marking of chromatin with H3-Tyr99-phosphorylation within AR-target gene promoters may suppress repressive dimethylation leading to transcriptional activation in androgen-deprived environment of prostate tumors.
as §1, with “H3K9” for “H3K9 dimethyl”, “H3K27” for “H3K27 dimethyl”

[7] = target: T3, Ack1 (Homo sapiens, UniProt Q07912); assay type: biochemical
Description: Purified histone H3 and Ack1 were incubated at 37° C. for 1 hour with or without AIM-100 followed by immunoblotting with indicated antibodies.

[8] = target: T3, Ack1; assay type: biochemical; conditions: ELISA, read at 450 nm
Description: WEE1 and Ack1 are two non-receptor tyrosine kinases or NRTKs that have known nuclear functions. To determine whether WEE1 and Ack1 can directly target H4 for Tyr88-phosphorylation, this study performed in vitro kinase assay. In brief, the Streptavidin coated 96-well plates (R&D systems) were incubated with biotinylated H4-derived peptide […] (SEQ ID NO: 64) for 1 hour. The plates were washed and the purified WEE1 or Ack1 were added in kinase buffer (20 mM HEPES, 150 mM NaCl, 0.5% Triton X-100, 10% Glycerol, phosphatase and protease inhibitors) containing ATP and MgCl2. After 2 hours of incubation, plates were washed with phosphate buffered saline containing 0.1% Tween 20 (PBST) and blocked in 3% BSA. The pY88-H4 antibodies (at 1:500 dilution) were added and incubated for 1 hour. Unbound antibodies were washed and HRP-conjugated anti-mouse secondary Antibodies (1:2000) were added. Magnitude of phosphorylation was detected using developer solution (OPD tablets, Sigma) and the plates were read at 450 nm. As a negative control, no kinase and no peptide reactions were used. The biotinylated phosphopeptide […]p[…] (SEQ ID NO: 65) was used as a positive control.

[9] = Table 3, of total injected embryos

T3 sequence (Q07912 whole entry): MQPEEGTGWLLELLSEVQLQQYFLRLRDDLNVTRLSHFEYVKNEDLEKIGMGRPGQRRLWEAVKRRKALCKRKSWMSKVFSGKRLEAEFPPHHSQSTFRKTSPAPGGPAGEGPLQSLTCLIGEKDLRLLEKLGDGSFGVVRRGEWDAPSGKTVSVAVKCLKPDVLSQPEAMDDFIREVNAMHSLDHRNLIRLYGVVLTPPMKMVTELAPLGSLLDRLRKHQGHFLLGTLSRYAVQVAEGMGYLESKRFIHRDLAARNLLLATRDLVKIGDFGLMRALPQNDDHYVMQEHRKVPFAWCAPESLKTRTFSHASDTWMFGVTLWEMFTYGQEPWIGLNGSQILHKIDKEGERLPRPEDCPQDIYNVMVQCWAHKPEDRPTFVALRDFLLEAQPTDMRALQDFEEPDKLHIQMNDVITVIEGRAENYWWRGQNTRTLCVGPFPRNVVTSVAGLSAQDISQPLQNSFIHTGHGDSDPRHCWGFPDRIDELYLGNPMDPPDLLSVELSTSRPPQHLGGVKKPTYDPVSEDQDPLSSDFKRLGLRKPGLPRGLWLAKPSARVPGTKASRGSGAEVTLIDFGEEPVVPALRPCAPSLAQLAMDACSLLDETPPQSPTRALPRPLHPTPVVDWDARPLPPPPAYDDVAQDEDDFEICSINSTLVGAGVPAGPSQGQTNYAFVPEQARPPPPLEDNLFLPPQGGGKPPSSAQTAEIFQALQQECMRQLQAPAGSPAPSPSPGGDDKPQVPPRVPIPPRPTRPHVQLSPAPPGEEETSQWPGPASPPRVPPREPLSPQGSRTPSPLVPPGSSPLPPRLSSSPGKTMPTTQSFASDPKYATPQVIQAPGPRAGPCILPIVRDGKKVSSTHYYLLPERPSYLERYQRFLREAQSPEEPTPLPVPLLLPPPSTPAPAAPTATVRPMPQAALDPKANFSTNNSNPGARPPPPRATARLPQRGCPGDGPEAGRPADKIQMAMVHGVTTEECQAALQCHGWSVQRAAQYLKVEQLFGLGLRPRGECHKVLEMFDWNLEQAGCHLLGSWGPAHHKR
T2 sequence (Q07912 whole entry E346K): as the sequence (Q07912 whole entry) above, with E346K counted along it
T1 sequence (Q13315 whole entry): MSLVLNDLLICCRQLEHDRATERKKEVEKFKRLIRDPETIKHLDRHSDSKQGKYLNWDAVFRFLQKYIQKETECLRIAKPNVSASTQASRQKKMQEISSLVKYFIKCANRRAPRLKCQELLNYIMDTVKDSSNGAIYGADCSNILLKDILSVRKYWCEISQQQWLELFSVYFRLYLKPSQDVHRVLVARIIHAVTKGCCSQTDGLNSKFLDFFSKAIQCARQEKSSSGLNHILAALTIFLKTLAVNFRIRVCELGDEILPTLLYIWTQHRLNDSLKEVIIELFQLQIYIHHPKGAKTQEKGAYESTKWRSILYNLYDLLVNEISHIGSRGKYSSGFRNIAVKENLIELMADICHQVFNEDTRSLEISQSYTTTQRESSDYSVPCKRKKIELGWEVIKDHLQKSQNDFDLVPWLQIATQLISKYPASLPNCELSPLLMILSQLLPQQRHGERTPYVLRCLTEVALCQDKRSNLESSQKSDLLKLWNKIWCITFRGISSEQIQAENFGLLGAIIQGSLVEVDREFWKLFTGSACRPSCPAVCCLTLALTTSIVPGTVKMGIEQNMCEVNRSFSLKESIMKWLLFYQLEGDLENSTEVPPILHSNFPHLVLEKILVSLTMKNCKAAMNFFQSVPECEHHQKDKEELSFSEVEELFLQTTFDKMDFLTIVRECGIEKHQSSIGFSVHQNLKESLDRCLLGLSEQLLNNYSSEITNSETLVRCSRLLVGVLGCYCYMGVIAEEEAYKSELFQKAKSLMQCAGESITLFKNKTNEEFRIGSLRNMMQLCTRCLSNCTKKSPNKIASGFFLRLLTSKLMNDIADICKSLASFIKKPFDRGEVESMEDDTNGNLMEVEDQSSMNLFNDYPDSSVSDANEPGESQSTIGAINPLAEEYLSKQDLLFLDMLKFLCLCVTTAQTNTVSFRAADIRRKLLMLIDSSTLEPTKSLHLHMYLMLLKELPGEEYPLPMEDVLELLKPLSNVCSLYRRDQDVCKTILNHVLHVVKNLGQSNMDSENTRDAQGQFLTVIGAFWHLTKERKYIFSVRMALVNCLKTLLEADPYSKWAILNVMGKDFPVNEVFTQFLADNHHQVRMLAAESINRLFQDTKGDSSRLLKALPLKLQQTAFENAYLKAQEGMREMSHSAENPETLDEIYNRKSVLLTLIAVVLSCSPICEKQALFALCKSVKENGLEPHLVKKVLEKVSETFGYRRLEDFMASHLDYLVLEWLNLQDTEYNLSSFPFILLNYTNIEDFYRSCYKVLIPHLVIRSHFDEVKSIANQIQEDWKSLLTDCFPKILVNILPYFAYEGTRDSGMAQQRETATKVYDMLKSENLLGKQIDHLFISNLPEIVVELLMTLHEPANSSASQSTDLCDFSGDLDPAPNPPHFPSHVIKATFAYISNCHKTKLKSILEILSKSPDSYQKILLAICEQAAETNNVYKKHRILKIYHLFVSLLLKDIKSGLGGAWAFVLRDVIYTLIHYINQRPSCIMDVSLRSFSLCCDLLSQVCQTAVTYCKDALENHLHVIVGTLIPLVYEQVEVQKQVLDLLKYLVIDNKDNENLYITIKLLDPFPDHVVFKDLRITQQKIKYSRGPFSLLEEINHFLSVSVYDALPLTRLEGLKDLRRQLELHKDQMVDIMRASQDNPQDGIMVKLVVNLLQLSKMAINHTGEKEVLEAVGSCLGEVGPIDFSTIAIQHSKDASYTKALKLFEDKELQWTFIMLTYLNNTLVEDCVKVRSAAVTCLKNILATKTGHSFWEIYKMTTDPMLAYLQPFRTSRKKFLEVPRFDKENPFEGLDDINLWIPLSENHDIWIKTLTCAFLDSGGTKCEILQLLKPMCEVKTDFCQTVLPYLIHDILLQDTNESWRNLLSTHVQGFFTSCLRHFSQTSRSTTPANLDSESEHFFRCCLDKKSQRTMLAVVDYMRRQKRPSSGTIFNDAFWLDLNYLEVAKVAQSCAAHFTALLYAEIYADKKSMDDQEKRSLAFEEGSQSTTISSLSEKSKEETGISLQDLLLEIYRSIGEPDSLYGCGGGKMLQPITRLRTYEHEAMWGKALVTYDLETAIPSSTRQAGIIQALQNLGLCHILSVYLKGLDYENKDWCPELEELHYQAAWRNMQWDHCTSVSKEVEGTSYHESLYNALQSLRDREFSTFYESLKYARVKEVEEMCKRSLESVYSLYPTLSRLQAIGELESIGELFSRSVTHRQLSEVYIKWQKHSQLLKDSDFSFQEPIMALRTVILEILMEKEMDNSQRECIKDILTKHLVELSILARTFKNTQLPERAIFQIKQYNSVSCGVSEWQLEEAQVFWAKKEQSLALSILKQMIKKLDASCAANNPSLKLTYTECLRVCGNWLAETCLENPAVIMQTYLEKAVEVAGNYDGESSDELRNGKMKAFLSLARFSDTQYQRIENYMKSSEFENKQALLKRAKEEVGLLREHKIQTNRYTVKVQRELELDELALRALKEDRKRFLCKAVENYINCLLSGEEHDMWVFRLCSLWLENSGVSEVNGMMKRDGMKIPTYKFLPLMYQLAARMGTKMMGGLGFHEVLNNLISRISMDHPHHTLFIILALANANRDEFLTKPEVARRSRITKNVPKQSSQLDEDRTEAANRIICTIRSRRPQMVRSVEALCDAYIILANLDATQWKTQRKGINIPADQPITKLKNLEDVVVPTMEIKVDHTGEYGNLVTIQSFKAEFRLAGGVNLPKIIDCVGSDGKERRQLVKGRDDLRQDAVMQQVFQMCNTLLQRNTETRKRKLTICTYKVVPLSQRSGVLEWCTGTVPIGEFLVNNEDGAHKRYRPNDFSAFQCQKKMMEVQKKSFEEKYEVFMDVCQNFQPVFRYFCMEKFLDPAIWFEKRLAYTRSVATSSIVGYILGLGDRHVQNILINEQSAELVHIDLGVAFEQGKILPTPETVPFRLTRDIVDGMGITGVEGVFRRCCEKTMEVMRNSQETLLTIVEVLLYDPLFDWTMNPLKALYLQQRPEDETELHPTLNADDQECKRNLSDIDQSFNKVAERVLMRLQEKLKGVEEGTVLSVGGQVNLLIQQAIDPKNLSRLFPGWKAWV

IR-induced de-phosphorylation of pY37-H2B [1]: prevented
Compound: O=c1cc(-c2cccc3c2Sc2ccccc2S3)oc(N2CCOCC2)c1 [Ku55393]

Compound: c1ccc(-c2oc3ncnc(NC[C@@H]4CCCO4)c3c2-c2ccccc2)cc1 [AIM-100]
abn/delay, gastrulation is abnormal or delayed (% of total) [2, 9]: (6.7%)
abn/delay, gastrulation is abnormal or delayed (number of embryos) [2, 9]: 15
dead (% of total) [2, 9]: (43%)
dead (number of embryos) [2, 9]: 97
epib blk, epiboly block phenotype (% of total) [2, 9]: (29%)
epib blk, epiboly block phenotype (number of embryos) [2, 9]: 65
epib red, partial phenotype (% of total) [2, 9]: (8%)
epib red, partial phenotype (number of embryos) [2, 9]: 18
norm. (% of total) [2, 9]: (11%)
norm. (number of embryos) ([2]; Table 3, of total injected embryos, antibodies 200 ng/em, AIM-100 200 pM/em): 24
abn/delay (% of survivors) ([2]; Table 4, surviving embryos): 12%
abn/delay (number of embryos) ([2]; Table 4, surviving embryos): 15
epib blk (number of embryos) ([2]; Table 4, surviving embryos): 65
epib red (number of embryos) ([2]; Table 4, surviving embryos): 18
normal (% of survivors) ([2]; Table 4, surviving embryos): 19%
normal (number of embryos) ([2]; Table 4, surviving embryos): 24
mortality rate ([2]; by the onset of gastrulation (~20 hours after microinjection at the 2-cell stage, 16° C.)): 43-45%
timing or pattern of early cleavages ([2]; injected embryos): did not alter
epib blk, epiboly block/involution failure (% of survivors) ([2]; surviving embryos): 51%
epib red, partial reduced epiboly phenotype (% of survivors) ([2]; surviving embryos): 14%
recruitment of pTyr-AR to PSA, NKX3,1 and TMPRSS2 promoters [3]: suppressed
H4 pTyr51-phosphorylation by purified E346K-Ack1 [4]: abrogated
prostate xenograft tumor growth [5]: mitigated the growth; also recorded: partially suppresses
H3K9 and K27 dimethylation and trimethylation [6]: increased
H3 K9 trimethylation ([6]; LAPC4 cells, 7 uM, 16 hours): increased; also recorded: significant increase
H3K9 and K27 dimethylation ([6]; LAPC4 cells, EGF and AIM-100): increased
Ack1 phosphorylation of H3 at Tyr99 [7]: significantly compromised
H4 Tyr88-phosphorylation by Ack1 [8]: significantly decreased
